Paper PMC4076210, “Discovery of Novel AKT Inhibitors with Enhanced Anti-Tumor Effects in Combination with the MEK Inhibitor” (PLoS ONE, 2014)
Like-named read-outs stand apart in the source and are kept apart here.

Experiments:
Abl(T315I)(h) = biological target: T1, Abl(T315I)(h) (Homo sapiens, UniProt P00519, T315I); assay: Kinase panel; type: biochemical
T1 construct: purchased Millipore KinaseProfiler

AMPK(r) = assay: Kinase panel; type: biochemical, rat
Bmx(h) = biological target: T2, Bmx(h) (Homo sapiens, UniProt P51813); assay: Kinase panel; type: biochemical
T2 construct: purchased Millipore KinaseProfiler
T2 sequence (P51813 1-675): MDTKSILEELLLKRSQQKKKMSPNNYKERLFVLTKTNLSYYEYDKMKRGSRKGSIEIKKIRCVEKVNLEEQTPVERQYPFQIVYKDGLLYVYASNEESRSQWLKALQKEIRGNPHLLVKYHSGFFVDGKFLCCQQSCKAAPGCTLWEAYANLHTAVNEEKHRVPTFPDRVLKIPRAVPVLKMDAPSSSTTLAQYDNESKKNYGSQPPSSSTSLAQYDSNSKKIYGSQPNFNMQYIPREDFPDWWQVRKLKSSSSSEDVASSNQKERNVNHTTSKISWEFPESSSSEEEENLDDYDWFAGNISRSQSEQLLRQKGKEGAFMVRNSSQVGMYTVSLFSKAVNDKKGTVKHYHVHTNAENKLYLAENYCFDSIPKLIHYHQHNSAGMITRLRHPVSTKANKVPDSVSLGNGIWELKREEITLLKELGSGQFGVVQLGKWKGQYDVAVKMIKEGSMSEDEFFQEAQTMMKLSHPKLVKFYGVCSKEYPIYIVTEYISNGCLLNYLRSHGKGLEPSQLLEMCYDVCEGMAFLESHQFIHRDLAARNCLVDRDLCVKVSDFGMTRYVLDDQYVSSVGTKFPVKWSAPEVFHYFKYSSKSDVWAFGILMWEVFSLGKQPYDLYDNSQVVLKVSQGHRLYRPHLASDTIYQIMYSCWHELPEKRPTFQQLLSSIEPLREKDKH

CK1γ1(h) = biological target: T3, CK1γ1(h) (Homo sapiens, UniProt Q9HCP0); assay: Kinase panel; type: biochemical
T3 construct: purchased Millipore KinaseProfiler
T3 sequence (Q9HCP0 whole entry): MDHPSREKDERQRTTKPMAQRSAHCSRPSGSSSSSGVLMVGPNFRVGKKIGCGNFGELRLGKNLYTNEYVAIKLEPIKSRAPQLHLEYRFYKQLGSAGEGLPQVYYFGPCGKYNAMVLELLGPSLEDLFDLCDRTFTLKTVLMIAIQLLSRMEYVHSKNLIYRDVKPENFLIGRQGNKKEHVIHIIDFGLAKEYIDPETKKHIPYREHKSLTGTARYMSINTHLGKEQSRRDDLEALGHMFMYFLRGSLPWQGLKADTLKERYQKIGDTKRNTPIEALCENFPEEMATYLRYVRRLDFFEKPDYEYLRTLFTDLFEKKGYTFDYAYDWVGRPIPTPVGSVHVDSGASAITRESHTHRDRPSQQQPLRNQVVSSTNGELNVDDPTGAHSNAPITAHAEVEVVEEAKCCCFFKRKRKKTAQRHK

CSK(h) = biological target: T4, CSK(h) (Homo sapiens, UniProt P41240); assay: Kinase panel; type: biochemical
T4 construct: purchased Millipore KinaseProfiler
T4 sequence (P41240 whole entry): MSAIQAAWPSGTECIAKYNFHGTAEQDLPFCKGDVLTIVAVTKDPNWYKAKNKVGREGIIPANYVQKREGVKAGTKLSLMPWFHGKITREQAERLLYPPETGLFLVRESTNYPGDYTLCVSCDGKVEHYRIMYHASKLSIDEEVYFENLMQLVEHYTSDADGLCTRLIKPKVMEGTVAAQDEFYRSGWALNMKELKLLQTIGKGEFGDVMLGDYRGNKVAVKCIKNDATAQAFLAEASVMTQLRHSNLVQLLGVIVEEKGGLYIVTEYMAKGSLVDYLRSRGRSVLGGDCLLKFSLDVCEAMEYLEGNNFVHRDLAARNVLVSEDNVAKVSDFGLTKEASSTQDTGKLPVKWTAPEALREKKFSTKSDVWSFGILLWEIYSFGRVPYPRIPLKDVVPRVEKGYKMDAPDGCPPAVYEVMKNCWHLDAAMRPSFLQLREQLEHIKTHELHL

Fer(h) = biological target: T5, Fer(h) (Homo sapiens, UniProt P16591); assay: Kinase panel; type: biochemical
T5 construct: purchased Millipore KinaseProfiler
T5 sequence (P16591 whole entry): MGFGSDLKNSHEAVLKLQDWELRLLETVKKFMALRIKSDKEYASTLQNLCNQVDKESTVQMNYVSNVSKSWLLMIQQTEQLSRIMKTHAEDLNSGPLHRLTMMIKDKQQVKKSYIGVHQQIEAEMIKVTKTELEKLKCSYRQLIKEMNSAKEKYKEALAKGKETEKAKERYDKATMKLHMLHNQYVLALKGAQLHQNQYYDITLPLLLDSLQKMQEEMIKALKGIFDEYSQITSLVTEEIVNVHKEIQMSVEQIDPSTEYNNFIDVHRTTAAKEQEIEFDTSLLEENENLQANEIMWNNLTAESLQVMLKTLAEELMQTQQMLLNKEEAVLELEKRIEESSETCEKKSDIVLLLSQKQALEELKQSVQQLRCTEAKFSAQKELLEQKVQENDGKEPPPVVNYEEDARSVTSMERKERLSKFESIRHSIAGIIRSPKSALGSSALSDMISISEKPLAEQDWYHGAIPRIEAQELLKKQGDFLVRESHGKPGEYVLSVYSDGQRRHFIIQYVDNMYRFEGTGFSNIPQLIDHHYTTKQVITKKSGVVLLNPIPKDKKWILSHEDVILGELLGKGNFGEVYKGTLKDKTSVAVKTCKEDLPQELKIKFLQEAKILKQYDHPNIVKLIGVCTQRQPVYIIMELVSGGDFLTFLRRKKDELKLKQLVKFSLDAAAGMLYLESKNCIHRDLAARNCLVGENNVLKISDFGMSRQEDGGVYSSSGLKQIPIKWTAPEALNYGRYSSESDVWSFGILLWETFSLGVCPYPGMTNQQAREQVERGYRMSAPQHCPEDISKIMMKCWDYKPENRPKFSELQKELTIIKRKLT

Hck(h) = biological target: T6, Hck(h) (Homo sapiens, UniProt P08631); assay: Kinase panel; type: biochemical
T6 construct: purchased Millipore KinaseProfiler
T6 sequence (P08631 whole entry): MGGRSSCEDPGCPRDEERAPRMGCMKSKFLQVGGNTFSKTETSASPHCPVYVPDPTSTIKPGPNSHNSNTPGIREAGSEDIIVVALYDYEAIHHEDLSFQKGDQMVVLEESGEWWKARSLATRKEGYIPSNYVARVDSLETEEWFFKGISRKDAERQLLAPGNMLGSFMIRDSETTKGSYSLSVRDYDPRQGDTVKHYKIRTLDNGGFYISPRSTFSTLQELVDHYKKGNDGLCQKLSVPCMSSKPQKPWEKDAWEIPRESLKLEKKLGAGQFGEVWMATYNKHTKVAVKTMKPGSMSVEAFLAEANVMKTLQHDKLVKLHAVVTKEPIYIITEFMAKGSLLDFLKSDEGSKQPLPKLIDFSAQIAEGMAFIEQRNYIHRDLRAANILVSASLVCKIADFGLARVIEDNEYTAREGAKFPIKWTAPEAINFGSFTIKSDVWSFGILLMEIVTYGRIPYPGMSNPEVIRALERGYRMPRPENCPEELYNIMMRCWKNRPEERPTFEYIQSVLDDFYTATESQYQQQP

MAPK2(h) = biological target: T7, MAPK2(h) (Homo sapiens, UniProt P28482); assay: Kinase panel; type: biochemical
T7 construct: purchased Millipore KinaseProfiler
T7 sequence (P28482 whole entry): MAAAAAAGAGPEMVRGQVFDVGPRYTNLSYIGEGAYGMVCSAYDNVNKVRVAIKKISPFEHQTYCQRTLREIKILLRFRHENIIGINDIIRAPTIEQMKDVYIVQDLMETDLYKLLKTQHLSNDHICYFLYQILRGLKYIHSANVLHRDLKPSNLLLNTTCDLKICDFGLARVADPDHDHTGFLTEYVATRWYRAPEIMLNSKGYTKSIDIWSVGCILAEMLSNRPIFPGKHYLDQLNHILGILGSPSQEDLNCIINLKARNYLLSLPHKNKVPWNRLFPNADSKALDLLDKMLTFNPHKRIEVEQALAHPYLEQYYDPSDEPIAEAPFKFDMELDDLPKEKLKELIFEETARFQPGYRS

MEK1(h) = biological target: T8, MEK1(h) (Homo sapiens, UniProt Q02750); assay: Kinase panel; type: biochemical
T8 construct: purchased Millipore KinaseProfiler
T8 sequence (Q02750 whole entry): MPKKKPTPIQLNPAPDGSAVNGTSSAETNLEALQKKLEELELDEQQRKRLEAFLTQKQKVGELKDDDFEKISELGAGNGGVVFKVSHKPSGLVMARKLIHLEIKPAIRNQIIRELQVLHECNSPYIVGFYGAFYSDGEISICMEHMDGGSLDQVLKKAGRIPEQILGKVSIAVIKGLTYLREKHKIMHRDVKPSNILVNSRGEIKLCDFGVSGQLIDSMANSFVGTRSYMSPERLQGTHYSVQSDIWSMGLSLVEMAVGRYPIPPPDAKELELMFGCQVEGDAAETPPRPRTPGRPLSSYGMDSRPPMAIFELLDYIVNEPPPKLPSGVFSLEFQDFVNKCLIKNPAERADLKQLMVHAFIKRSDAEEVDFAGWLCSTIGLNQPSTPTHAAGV

Ret(h) = biological target: T9, Ret(h) (Homo sapiens, UniProt P07949); assay: Kinase panel; type: biochemical
T9 construct: purchased Millipore KinaseProfiler
T9 sequence (P07949 29-1114): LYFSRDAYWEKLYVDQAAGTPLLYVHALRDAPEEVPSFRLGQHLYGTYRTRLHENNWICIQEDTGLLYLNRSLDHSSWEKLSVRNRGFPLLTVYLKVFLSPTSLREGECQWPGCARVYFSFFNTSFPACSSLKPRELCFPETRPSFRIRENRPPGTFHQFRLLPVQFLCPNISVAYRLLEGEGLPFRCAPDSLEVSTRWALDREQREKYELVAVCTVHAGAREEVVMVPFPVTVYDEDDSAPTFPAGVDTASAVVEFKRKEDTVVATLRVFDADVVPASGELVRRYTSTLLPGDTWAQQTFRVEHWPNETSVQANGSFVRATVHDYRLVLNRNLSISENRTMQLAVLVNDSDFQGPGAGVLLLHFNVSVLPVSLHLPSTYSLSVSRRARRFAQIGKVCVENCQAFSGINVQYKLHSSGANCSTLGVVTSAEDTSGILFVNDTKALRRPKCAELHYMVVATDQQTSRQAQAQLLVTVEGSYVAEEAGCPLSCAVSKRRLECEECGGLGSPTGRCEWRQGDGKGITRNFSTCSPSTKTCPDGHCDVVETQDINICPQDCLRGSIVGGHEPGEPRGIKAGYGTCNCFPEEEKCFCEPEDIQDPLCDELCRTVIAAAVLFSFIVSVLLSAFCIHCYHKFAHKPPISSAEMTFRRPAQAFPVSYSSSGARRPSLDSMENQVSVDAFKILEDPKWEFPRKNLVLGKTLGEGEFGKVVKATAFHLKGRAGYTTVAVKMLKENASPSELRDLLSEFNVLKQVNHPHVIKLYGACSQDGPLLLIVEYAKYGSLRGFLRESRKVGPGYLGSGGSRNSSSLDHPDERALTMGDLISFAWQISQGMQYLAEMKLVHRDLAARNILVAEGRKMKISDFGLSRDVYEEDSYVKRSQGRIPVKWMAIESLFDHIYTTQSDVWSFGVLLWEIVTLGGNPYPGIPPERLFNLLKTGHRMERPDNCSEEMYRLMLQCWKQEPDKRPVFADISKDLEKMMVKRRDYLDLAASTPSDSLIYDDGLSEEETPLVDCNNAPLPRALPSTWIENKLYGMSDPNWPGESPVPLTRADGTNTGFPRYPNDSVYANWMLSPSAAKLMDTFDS

Tie2(h) = biological target: T10, Tie2(h) (Homo sapiens, UniProt Q02763); assay: Kinase panel; type: biochemical
T10 construct: purchased Millipore KinaseProfiler

TSSK2(h) = biological target: T11, TSSK2(h) (Homo sapiens, UniProt Q96PF2); assay: Kinase panel; type: biochemical
T11 construct: purchased Millipore KinaseProfiler
T11 sequence (Q96PF2 1-358): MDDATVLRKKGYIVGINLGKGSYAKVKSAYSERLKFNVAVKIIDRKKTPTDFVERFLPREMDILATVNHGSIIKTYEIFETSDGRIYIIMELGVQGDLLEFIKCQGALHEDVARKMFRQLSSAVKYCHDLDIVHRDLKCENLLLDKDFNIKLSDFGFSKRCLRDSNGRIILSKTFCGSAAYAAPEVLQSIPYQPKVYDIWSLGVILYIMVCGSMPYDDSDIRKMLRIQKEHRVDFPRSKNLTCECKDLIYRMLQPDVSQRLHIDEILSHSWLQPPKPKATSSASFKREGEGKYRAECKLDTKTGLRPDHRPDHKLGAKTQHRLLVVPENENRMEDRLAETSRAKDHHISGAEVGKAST

VRK2(h) = biological target: T12, VRK2(h) (Homo sapiens, UniProt Q86Y07); assay: Kinase panel; type: biochemical
T12 construct: purchased Millipore KinaseProfiler
T12 sequence (Q86Y07 whole entry): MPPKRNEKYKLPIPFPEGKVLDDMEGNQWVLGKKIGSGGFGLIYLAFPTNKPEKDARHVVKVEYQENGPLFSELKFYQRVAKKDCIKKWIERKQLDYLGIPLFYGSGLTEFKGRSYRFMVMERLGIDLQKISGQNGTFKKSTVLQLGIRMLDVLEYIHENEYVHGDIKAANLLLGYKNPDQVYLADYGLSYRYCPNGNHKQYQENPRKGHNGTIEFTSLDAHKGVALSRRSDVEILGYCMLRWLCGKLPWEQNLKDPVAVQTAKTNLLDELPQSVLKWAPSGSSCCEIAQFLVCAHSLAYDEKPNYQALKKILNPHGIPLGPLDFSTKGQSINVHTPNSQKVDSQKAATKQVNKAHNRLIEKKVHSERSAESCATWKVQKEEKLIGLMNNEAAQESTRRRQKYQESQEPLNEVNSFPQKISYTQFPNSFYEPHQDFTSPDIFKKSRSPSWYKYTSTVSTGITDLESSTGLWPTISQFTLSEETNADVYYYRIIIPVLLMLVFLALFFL

PKCθ = PKCθ (Homo sapiens, UniProt Q04759); assay: Kinase IC50 assay; type: biochemical
PKCζ = PKCζ (Homo sapiens, UniProt Q05513); assay: Kinase IC50 assay; type: biochemical

`Cn1ncc(Cl)c1-c1cc(C(=O)N[C@H](CN)Cc2cccc(F)c2)sc1Cl` [GSK2110183] was tested, and the inhibition at 0.5 µM (Abl(T315I)(h)) was -1%, the inhibition at 10 µM (Abl(T315I)(h)) was 6% and the “% Inhibition” value (AMPK(r); 0.5 µM) was 3%. The “% Inhibition” value (AMPK(r); 10 µM) was 56%, the inhibition at 0.5 µM (Bmx(h)) was -2% and the inhibition at 10 µM (Bmx(h)) was 18%. It also gave an inhibition at 0.5 µM (CK1γ1(h)) of -1%, an inhibition at 10 µM (CK1γ1(h)) of 20% and an inhibition at 0.5 µM (CSK(h)) of 11%. The inhibition at 10 µM (CSK(h)) was 15%, the inhibition at 0.5 µM (Fer(h)) was -8% and the inhibition at 10 µM (Fer(h)) was 16%. The inhibition at 0.5 µM (Hck(h)) was -21%, the inhibition at 10 µM (Hck(h)) was -8% and the inhibition at 0.5 µM (MAPK2(h)) was -2%. It also gave an inhibition at 10 µM (MAPK2(h)) of 17%, an inhibition at 0.5 µM (MEK1(h)) of -1% and an inhibition at 10 µM (MEK1(h)) of 24%. It also gave an inhibition at 0.5 µM (Ret(h)) of 4%, an inhibition at 10 µM (Ret(h)) of 14% and an inhibition at 0.5 µM (Tie2(h)) of -56%. It also gave an inhibition at 10 µM (Tie2(h)) of -10%, an inhibition at 0.5 µM (TSSK2(h)) of 4% and an inhibition at 10 µM (TSSK2(h)) of 44%. The inhibition at 0.5 µM (VRK2(h)) was -8%, the inhibition at 10 µM (VRK2(h)) was -5% and the IC50 (PKCθ) was 510 nM. The IC50 (PKCζ) was greater than 1000 nM.

With `Cn1ncc(Cl)c1-c1cc(C(=O)N[C@H](CN)Cc2ccc(F)c(F)c2)oc1Cl` [GSK2141795] the inhibition at 0.5 µM (Abl(T315I)(h); 0.5 µM, read-out: % Inhibition) was -2%, the inhibition at 10 µM (Abl(T315I)(h); 10 µM, read-out: % Inhibition) was -2% and the “% Inhibition” value (AMPK(r); 0.5 µM) was 10%. The “% Inhibition” value (AMPK(r); 10 µM) was 76%, the inhibition at 0.5 µM (Bmx(h); 0.5 µM, read-out: % Inhibition) was -6% and the inhibition at 10 µM (Bmx(h); 10 µM, read-out: % Inhibition) was 21%. For the same compound, the inhibition at 0.5 µM (CK1γ1(h); 0.5 µM, read-out: % Inhibition) was -6%, the inhibition at 10 µM (CK1γ1(h); 10 µM, read-out: % Inhibition) was 39% and the inhibition at 0.5 µM (CSK(h); 0.5 µM, read-out: % Inhibition) was 0%. For the same compound, the inhibition at 10 µM (CSK(h); 10 µM, read-out: % Inhibition) was -14%, the inhibition at 0.5 µM (Fer(h); 0.5 µM, read-out: % Inhibition) was 1% and the inhibition at 10 µM (Fer(h); 10 µM, read-out: % Inhibition) was -4%. It also gave an inhibition at 0.5 µM (Hck(h); 0.5 µM, read-out: % Inhibition) of -5%, an inhibition at 10 µM (Hck(h); 10 µM, read-out: % Inhibition) of 27% and an inhibition at 0.5 µM (MAPK2(h); 0.5 µM, read-out: % Inhibition) of 11%. It also gave an inhibition at 10 µM (MAPK2(h); 10 µM, read-out: % Inhibition) of 49%, an inhibition at 0.5 µM (MEK1(h); 0.5 µM, read-out: % Inhibition) of 0% and an inhibition at 10 µM (MEK1(h); 10 µM, read-out: % Inhibition) of 26%. For the same compound, the inhibition at 0.5 µM (Ret(h); 0.5 µM, read-out: % Inhibition) was -19%, the inhibition at 10 µM (Ret(h); 10 µM, read-out: % Inhibition) was 31% and the inhibition at 0.5 µM (Tie2(h); 0.5 µM, read-out: % Inhibition) was -6%. The inhibition at 10 µM (Tie2(h); 10 µM, read-out: % Inhibition) was 9%, the inhibition at 0.5 µM (TSSK2(h); 0.5 µM, read-out: % Inhibition) was 7% and the inhibition at 10 µM (TSSK2(h); 10 µM, read-out: % Inhibition) was 53%. It also gave an inhibition at 0.5 µM (VRK2(h); 0.5 µM, read-out: % Inhibition) of -15%, an inhibition at 10 µM (VRK2(h); 10 µM, read-out: % Inhibition) of -5% and an IC50 (PKCθ) of 64 nM. It also gave an IC50 (PKCζ) greater than 1000 nM.
